Assays:
Assay type in all cases: ADME, organism-based
Details in all cases: in vivo
[1] = Oral bioavailability in Wistar rat at 20 mg/kg by LC-MS/MS analysis
[2] = Tmax in Wistar rat at 20 mg/kg, […] by LC-MS/MS analysis
[3] = Tmax in Wistar rat at 200 mg/kg, […] by LC-MS/MS analysis
[4] = Oral bioavailability in human

- bioavailability [1]: 61.2%
- Tmax [2]: 62.4 min
- Tmax [3]: 39.6 min
- bioavailability [4]: 2.67%
Compound: C=C1CC[C@@H]2[C@](C)(CO)[C@H](O)CC[C@@]2(C)[C@@H]1C/C=C1/C(=O)OC[C@H]1O [ANDROGRAPHOLIDE]

Reference: ChEMBL document CHEMBL6078639, “Andrographolide: A promising therapeutic agent against organ fibrosis” (Eur J Med Chem, 2024)
